# From a melting point compilation (Tetko et al.; mined from patent text by program, amines drawn as free bases though some values may be those of a salt)
row,melting point [°C],Compound
1,132 to 134,CCn1cc(-c2ccc3c(c2)c(C2CCN(CCN4CCNC4=O)CC2)cn3-c2ccc(F)cc2)nn1
2,103 to 106,CCC(CC)Nc1c([N+](=O)[O-])cc(C)c(COC(=O)COc2ccc(Cl)cc2Cl)c1[N+](=O)[O-]
3,40 to 43,CCCCCCCCCCOc1ccc(O)c(C(=O)OC)c1
4,85 to 87,CCC(CC)(CO)c1cc(Cl)nnc1Cl
5,99 to 101,COc1ccc(N2C(=O)O[C@H](CO)[C@@H]2C)cc1
6,198 to 200,O=C1C2C3COC2(C3)c2cccnc2N1c1ccccc1 (centres undefined)
7,102 to 103,CSc1cc2cccc(NS(=O)(=O)c3cccs3)c2[nH]1
8,172 to 174,O=C(O)CCC(=O)c1ccc(-c2ccc(C(F)(F)F)cc2)cc1
9,81 to 83,O=C(OCc1ccccc1)c1ncoc1CCNC(=O)[C@H](Cc1cccs1)N[C@@H](CCc1ccccc1)C(=O)OCc1ccccc1
10,109 to 110,CCCc1c(C(=O)OC)[nH]c2c(C)ccc(Cl)c12
11,165 to 166,COC1(C)CC(NC(=O)C(F)(F)F)C(O)(NC(=O)C(F)(F)F)C(C)O1 (centres undefined)
12,78 to 79,CC(S)C(=O)NCCc1ccccc1 (centres undefined)
13,201 to 203,NS(=O)(=O)c1ccc(-c2cnn(Cc3c(F)cc(F)cc3F)c(=O)c2-c2ccc(F)cc2)cc1
14,82 to 84,O=[N+]([O-])c1ccc(Oc2ccccc2Oc2ccc(Cl)cn2)nc1
15,55,COc1ccc(N(N)Cc2ccc(Cl)cc2)cc1
16,107 to 110,COc1cc(Br)c(O)c(C=O)c1
17,118,OCc1cccc2cc(-c3ccccc3)oc12
18,184 to 186,CCCCc1ncc(/C=C(\Cc2ccc(OC)s2)C(=O)O)n1Cc1ccccc1Cl
19,109 to 111,CCOC(=O)[C@H](Cc1cccc(Oc2ccc(O)cc2)c1)NC(=O)C(F)(F)F
20,110 to 112,Cc1nc(OC[C@@H]2COC(C)(C)O2)c(C#N)c(N2CCc3ccccc3CC2)n1
21,178 to 180,O=C(Nc1cscn1)Nc1cccc2c1C1CCCCN1C2=O (centres undefined)
22,52 to 54,CCCN(c1cc(Cl)ncn1)n1cccc1
23,72 to 73,CC1=NCN(c2csc(Br)c2)O1
24,120 to 123,CO/N=C1\CCCC[C@@H]1NC(=O)c1cnc(O[C@@H](C)C(F)(F)F)c(-c2ccc(Cl)cc2)n1

row,melting point [°C],Compound
1,130 to 142,Cc1ccc(S(=O)(=O)N(C)c2cc(C(C)(C)C)c(O)c(C(C)(C)C)c2)cc1
2,147 to 148,O=Cc1nn(-c2ccc([N+](=O)[O-])cc2)c2c1CCCC2
3,175 to 176,CCNCC(=O)N1c2ccccc2NC(=O)c2c1c(C)cn2C
4,161 to 162,Cc1nc(C(=O)COc2ccc(CC3SC(=O)NC3=O)cc2)c(C)o1 (centres undefined)
5,99 to 102,CCOC(=O)c1cc(=O)c2c(OCC(O)COc3ccc(C(C)(C)C)cc3)cccc2o1 (centres undefined)
6,165 to 166,Nc1cccc2cc(-c3ccccn3)[nH]c12
7,155 to 157,N#Cc1ccc(CN2CC=C(/C=C/c3ccccc3)CC2)cc1
8,152 to 159,O=C1OC2(CC(c3cccc(-c4ccccc4)c3)=NO2)c2ccccc21 (centres undefined)
9,85 to 86,O=CC1CCN1C(c1ccccc1)c1ccccc1 (centres undefined)
10,188 to 190,CCCCc1nc2c(N)nc3ccc(O)cc3c2n1CCCCNC(=O)c1ccccc1
11,193 to 195,CC(C)(C)OC(=O)NC1CNc2c(cc(Br)cc2[N+](=O)[O-])C1 (centres undefined)
12,68,CC(C)(C)OC(=O)c1ccccc1CNC(=O)C1Cc2ccccc2N1S(=O)(=O)c1ccc(-c2cccc(C(F)(F)F)c2)cc1 (centres undefined)
13,175 to 176,CN1CCN(c2cccc3c2C[C@H](NC(=O)c2csc(-c4ccccc4)n2)CC3)CC1
14,137 to 139,Cc1ccc(S(=O)(=O)N(C(=O)OC(C)(C)C)[C@@H]2CCCC[C@H]2N)cc1
15,169 to 170,O[C@H]1c2cc(OC(c3ccccc3)c3ccccc3)ccc2OC[C@H]1Oc1cccnc1 (relative stereo)
16,138 to 139,CCc1ncnc(N[C@H]2CS[C@@H](c3ccc(C)cc3)SC2)c1Cl
17,135 to 137,C#Cc1cc(C(=O)NC(C)CCCc2cccnc2)ccc1-c1ccc(OC)c(OC)c1 (centres undefined)
18,219 to 220,N#Cc1ccc(Oc2ccc(C3CCCN4CCS(=O)(=O)N=C34)cc2)cc1Cl (centres undefined)
19,186 to 188,NC1CC2c3ccccc3Cc3ccccc3N2C1=O (centres undefined)
20,178 to 182,CC1=C(c2cccc(C(F)(F)F)c2)n2ncc(C#N)c2N(C(=O)CCl)C1
21,173 to 175,Cc1cc(=O)c(OCc2ccccc2)c(C(=O)O)o1
22,221 to 222,CC1C2=C(CN=C(c3ccccc3Cl)c3cc(Cl)ccc32)C(=O)N1CC(N)=O (centres undefined)
23,239,O=C(Nc1cccc(S(=O)(=O)N2CCOCC2)c1)c1cnn2c(C(F)(F)F)cc(-c3ccc(Cl)c(Cl)c3)nc12
24,267,CSc1cc2c(cn1)c(=O)n1nccc1n2C

row,melting point [°C],Compound
1,140 to 141,SCc1cn(C(c2ccccc2)(c2ccccc2)c2ccccc2)nn1
2,120 to 122,COc1cc(Br)c([N+](=O)[O-])cc1OC
3,121 to 122,CCCCCc1c(C(C)C)nc(C(C)C)c(CO)c1-c1cccc(O)c1
4,142,COc1cccc(N(CC(=O)N(C)c2ccccc2)C(=O)CNC(=O)Nc2cccc(CO)c2)c1
5,137 to 139,O=C(NCc1ccccc1)c1ccnc(-n2cnn(CC3CC3)c2=O)c1
6,181,O=C(c1cc([N+](=O)[O-])cc(C(F)(F)F)c1)c1cc([N+](=O)[O-])cc(C(F)(F)F)c1
7,125 to 127,CC(C)(C)OC(=O)NC1(CCN2C(=O)c3ccccc3C2=O)CC1
8,57 to 58,CCCCCCc1cc(SC)ccc1OC(=O)c1ccccc1
9,265,Cc1nc(N)nc(N)c1-c1ccc([N+](=O)[O-])c(Cl)c1Cl
10,111 to 112,Oc1cc(-c2c3ccccc3c(Br)c3sc4ccccc4c23)ccc1Br
11,209 to 212,CC(C)c1cccc(C(C)C)c1NC(=O)C(Cc1ccc(OCc2ccccc2)cc1)NC(=O)CC(C)(C)C (centres undefined)
12,30,OC1(O)C(F)(F)CCCC1(Cl)Cl
13,121 to 124,O=C1CCN(C(=S)Nc2ccc(Cl)cc2)N1c1ccc(Cl)cc1
14,160,CN(C)C(=S)Oc1ccc(C(=O)c2cccc(C#N)c2)cc1
15,146 to 149,COc1ccc2c(c1)CCC1C2=CCC2(C)C1CCC21OCCO1 (centres undefined)
16,144,CN(CCN1CCN(c2cccc(C(F)(F)F)n2)CC1)C(=O)c1ccc(F)cc1
17,134 to 141,O=C(Cc1ccccc1)NC1CN(C(C(=O)O)c2ccc(O)cc2)C1=O (centres undefined)
18,118 to 121,COC(=O)CC(Oc1c(Br)cc(-c2c3ccccc3c(Br)c3sc4ccccc4c23)cc1Br)C(=O)OC (centres undefined)
19,198,CC(C)(C)C1=C(C#N)C(c2ccccc2Cl)c2c[nH]nc2N1 (centres undefined)
20,213 to 217,COc1ccc(S(=O)(=O)Nc2cccc(C)c2NC(=O)c2ccncc2)cc1
21,162 to 164,COc1ccc2c(C)cc(=O)oc2c1C
22,149 to 151,COc1ccc(C(=O)c2ccc3c(c2)CC(C(=O)O)C3)cc1 (centres undefined)
23,115 to 116,CC(=O)NC1CCC2=C(CC1)C(=O)CC=C2 (centres undefined)
24,161 to 162,CCCCCc1nc2ccccc2[nH]1

row,melting point [°C],Compound
1,284,Cc1nc2cc3c(cc2c(=O)[nH]1)CCC3
2,186 to 188,CC(C)c1cc(S(=O)(=O)c2c(Br)cc(CCC(=O)O)cc2Br)ccc1O
3,73 to 74,NCCCOc1ccc(OCCCN)cc1
4,138 to 139,COC(=O)[C@@]1(c2ccc3ccccc3c2)CC1(c1ccccc1)c1ccccc1
5,126 to 127,COC(=O)COc1cc2c(c(Cl)c1Cl)C(=O)C(CC#C[Si](C)(C)C)(c1ccccc1)C2 (centres undefined)
6,232 to 234,CCCCNc1cc(C(=O)O)cc(S(N)(=O)=O)c1Sc1ccc(N)cc1
7,103 to 105,COC(=O)c1ccccc1NCCCc1ccccc1
8,116 to 117,CCn1c(C(O)(Cc2ccccc2)Cc2ccccc2)nc(-c2ccncc2)c1-c1ccc(Cl)cc1
9,190 to 191,CC(C)(C)CC(C)(C)c1cc(N=Nc2cc(C#N)ccc2Cl)c(O)c(C(C)(C)c2ccccc2)c1
10,76 to 77,CCN(CC)C(=O)N1CCN(c2nc(-c3ccccc3)cs2)CC1
11,79 to 80,CCN(CC)C(=O)c1c(OC)cccc1-c1ccccc1
12,70 to 72,CC1=C(OS(=O)(=O)c2ccc(C)cc2)C(=O)C(C)O1 (centres undefined)
13,210 to 211,CN(C)C1CCN(c2cc3c(Cl)cccc3c(=O)[nH]2)CC1
14,155 to 157,CCCCCCCCCCCCc1nnn(C(C)C(=O)Nc2c(OC)cc(OC)cc2OC)n1 (centres undefined)
15,108 to 111,COc1ccc(C(=O)Cc2cc(OC)ccc2OC)cc1
16,224 to 226,CC(c1oc2ccccc2c(=O)c1-c1cccc(F)c1)n1nc(-c2ccc(OC(F)(F)F)cc2)c2c(N)ncnc21 (centres undefined)
17,76 to 78,O=C(O)CCCCCCCCCCOc1ccccc1
18,82 to 83,CC(C)(C)c1ncc(C=O)cn1
19,188,O=C1c2ccccc2C(O)(c2ccccc2)N1CCc1ccc(O)cc1 (centres undefined)
20,74,C1=CCC(OC2=CC=CC2)=C1
21,186 to 187,COc1ccc(-n2nnnc2C(F)(F)F)cc1[C@H]1CO[C@]2(CCCN(Cc3nc(=O)[nH][nH]3)[C@H]2c2ccccc2)C1
22,110 to 112,CC(C)C[C@@H](C=O)NC(=O)[C@H](Cc1c[nH]cn1)NC(=O)[C@H](Cc1ccc2ccccc2c1)NC(=O)OCc1ccccc1

row,Compound,melting point [°C]
1,CN1CCC2(C)c3cc(OC(=O)OC(C)(C)C)cc(Br)c3N(C)C12 (centres undefined),146 to 148
2,CC1(C)C(=O)N(c2ccc(C#N)c(C(F)(F)F)c2)C(=O)N1CCCCO[N+](=O)[O-],74 to 75
3,COC(=O)c1cc(OP(=S)(OC)OC)c(C(=O)OC)s1,71
4,Cc1cc(Cl)cc(C(=O)NCC(C)S(C)=O)c1NC(=O)c1cc(C(F)(F)F)nn1-c1ncccc1Cl (centres undefined),229 to 232
5,O=c1c2ccccc2nc(CCl)n1-c1cccc(Cl)c1,202 to 205
